ChEMBL document CHEMBL6182910, “Design, Synthesis, and Biological Evaluation of 4-(Difluoromethyl)-1H-imidazole-5-carboxylic Acids/4-(3-Cyanophenoxy)pyrimidine-5-carboxylic Acids as P2Y1 Receptor Antagonists for Ischemic Stroke Treatment” (J Med Chem, 2025)

Tests used:
P2Y purinoceptor 12 = P2Y purinoceptor 12 (Rattus norvegicus, UniProt Q9EPX4); assay: Antagonist activity at P2Y12 receptor in platelet-rich plasma of male Sprague-Dawley rat assessed as inhibition of VASP phosphorylation at Ser239 pretreated for 10 mins followed by PGE1/ADP addition measured after 10 mins by ELISA; assay type: cell-free
HT-22 = assay: Neuroprotective activity against H2O2-induced oxidative stress in mouse HT-22 cells assessed as cell viability at 10 uM preincubated for 2 hrs followed by H2O2 addition measured after 24 hrs by MTT assay (reference value: 55 +/- 4.6 %); assay type: functional; conditions: time 26 hrs, read-out: Activity
Rattus norvegicus [1] = assay: Anti-platelet aggregation in Sprague-Dawley rat assessed as inhibition of ADP-induced platelet aggregation at 10 mg/kg, po measured for 15 mins in presence of 10 uM ADP by cell counter analysis relative to control; assay type: functional; conditions: 0.25 h
Rattus norvegicus [2] = assay: Anti-platelet aggregation in Sprague-Dawley rat assessed as inhibition of ADP-induced platelet aggregation at 10 mg/kg, po measured for 15 mins in presence of 5 uM ADP by cell counter analysis relative to control; assay type: functional; conditions: 0.25 h
Rattus norvegicus [3] = assay: Anti-platelet aggregation in Sprague-Dawley rat assessed as inhibition of ADP-induced platelet aggregation at 10 mg/kg, po measured for 15 mins in presence of 2.5 uM ADP by cell counter analysis relative to control; assay type: functional; conditions: 0.25 h
[4] = Antagonist activity at P2Y12 receptor in platelet-rich plasma of male Japanese white rabbit assessed as inhibition of VASP phosphorylation at Ser239 pretreated for 10 mins followed by PGE1/ADP addition measured after 10 mins by ELISA; assay type: cell-free; conditions: Oryctolagus cuniculus
Plasma [5] = assay: Anti-platelet aggregation in platelet-rich plasma of male Japanese white rabbit assessed as inhibition of ADP-induced platelet aggregation preincubated for 15 mins followed by ADP addition measured up to 10 mins by Born's turbidometric method; assay type: functional, cell-free; conditions: Oryctolagus cuniculus
Plasma [6] = assay: Anti-platelet aggregation in platelet-rich plasma of male male Sprague-Dawley rat assessed as inhibition of ADP-induced platelet aggregation preincubated for 15 mins followed by ADP addition measured up to 10 mins by Born's turbidometric method; assay type: functional, cell-free
Plasma [7] = assay: Anti-platelet aggregation in platelet-rich plasma of male human assessed as inhibition of ADP-induced platelet aggregation preincubated for 15 mins followed by ADP addition measured up to 10 mins by Born's turbidometric method; assay type: functional, cell-free
Rattus norvegicus [8] = assay: Anti-platelet aggregation in Sprague-Dawley rat assessed as inhibition of ADP-induced platelet aggregation at 6 mg/kg, po measured for 15 mins in presence of 5 uM ADP by cell counter analysis relative to control; assay type: functional; conditions: 0.25 h
Rattus norvegicus [9] = assay: Neuroprotective activity in MCAO-induced brain damage Sprague-Dawley rat model assessed as plasma MDA level at 6 mg/kg, iv administered immediately after arterial occlusion measured after 24 hrs (reference value: 51.7 %); assay type: functional
Rattus norvegicus [10] = assay: Neuroprotective activity in MCAO-induced brain damage Sprague-Dawley rat model assessed as plasma GSH-px level at 6 mg/kg, iv administered immediately after arterial occlusion measured after 24 hrs; assay type: functional
Rattus norvegicus [11] = assay: Neuroprotective activity in MCAO-induced brain damage Sprague-Dawley rat model assessed as reduction in brain water content at 6 mg/kg, iv administered immediately after arterial occlusion measured after 24 hrs; assay type: functional, organism-based
[12] = Antioxidant activity assessed as inhibition of DPPH radical scavenging activity incubated for 30 mins under dark condition by absorbance based method; assay type: functional
Rattus norvegicus [13] = assay: Anti-platelet aggregation in Sprague-Dawley rat assessed as inhibition of ADP-induced platelet aggregation at 6 mg/kg, po measured for 15 mins in presence of 2.5 uM ADP by cell counter analysis relative to control; assay type: functional; conditions: 0.25 h
Rattus norvegicus [14] = assay: Anti-platelet aggregation in Sprague-Dawley rat assessed as inhibition of ADP-induced platelet aggregation at 6 mg/kg, po measured for 15 mins in presence of 10 uM ADP by cell counter analysis relative to control; assay type: functional; conditions: 0.25 h
Rattus norvegicus [15] = assay: Neuroprotective activity in MCAO-induced brain damage Sprague-Dawley rat model assessed as reduction in brain infarction size at 6 mg/kg, iv administered immediately after arterial occlusion measured after 24 hrs by TTC staining based analysis relative to control; assay type: functional; set-up: scale not given: the % may be the effect or the level left
P2Y purinoceptor 1 = P2Y purinoceptor 1 (Rattus norvegicus, UniProt P49651); assay: Antagonist activity at P2Y1 receptor in platelet-rich plasma of rat assessed as inhibition of ADP-induced cytosolic Ca2+ level pretreated for 5 mins followed by ADP addition by FLUO-4 AM dye based analysis; assay type: functional, cell-free
Oryctolagus cuniculus = species on record: Oryctolagus cuniculus; assay: Antagonist activity at P2Y12 receptor in platelet-rich plasma of male Japanese white rabbit assessed as inhibition of VASP phosphorylation at Ser239 at 30 uM pretreated for 10 mins followed by PGE1/ADP addition measured after 10 mins by ELISA relative to control; assay type: cell-free; conditions: time 20.0 min
Rattus norvegicus [16] = assay: Neuroprotective activity in MCAO-induced brain damage Sprague-Dawley rat model assessed as plasma MDA level at 10 mg/kg, iv administered immediately after arterial occlusion measured after 24 hrs (reference value: 51.7 %); assay type: functional
[17] = biological target: P2Y purinoceptor 12 (Rattus norvegicus) (UniProt Q9EPX4); assay: Antagonist activity at P2Y12 receptor in platelet-rich plasma of male Sprague-Dawley rat assessed as inhibition of VASP phosphorylation at Ser239 at 30 uM pretreated for 10 mins followed by PGE1/ADP addition measured after 10 mins by ELISA relative to control; assay type: cell-free; conditions: time 20.0 min
Rattus norvegicus [18] = assay: Neuroprotective activity in MCAO-induced brain damage Sprague-Dawley rat model assessed as reduction in brain water content at 10 mg/kg, iv administered immediately after arterial occlusion measured after 24 hrs; assay type: functional, organism-based
Rattus norvegicus [19] = assay: Neuroprotective activity in MCAO-induced brain damage Sprague-Dawley rat model assessed as plasma GSH-px level at 10 mg/kg, iv administered immediately after arterial occlusion measured after 24 hrs; assay type: functional
[20] = Antagonist activity at P2Y1 receptor in platelet-rich plasma of male Japanese white rabbit assessed as inhibition of ADP-induced cytosolic Ca2+ level pretreated for 5 mins followed by ADP addition by FLUO-4 AM dye based analysis; assay type: cell-free; conditions: Oryctolagus cuniculus
Rattus norvegicus [21] = assay: Neuroprotective activity in MCAO-induced brain damage Sprague-Dawley rat model assessed as reduction in brain infarction size at 10 mg/kg, iv administered immediately after arterial occlusion measured after 24 hrs by TTC staining based analysis relative to control; assay type: functional; set-up: scale not given: the % may be the effect or the level left

Sequence of P2Y purinoceptor 12 (Rattus norvegicus) (Q9EPX4 whole entry): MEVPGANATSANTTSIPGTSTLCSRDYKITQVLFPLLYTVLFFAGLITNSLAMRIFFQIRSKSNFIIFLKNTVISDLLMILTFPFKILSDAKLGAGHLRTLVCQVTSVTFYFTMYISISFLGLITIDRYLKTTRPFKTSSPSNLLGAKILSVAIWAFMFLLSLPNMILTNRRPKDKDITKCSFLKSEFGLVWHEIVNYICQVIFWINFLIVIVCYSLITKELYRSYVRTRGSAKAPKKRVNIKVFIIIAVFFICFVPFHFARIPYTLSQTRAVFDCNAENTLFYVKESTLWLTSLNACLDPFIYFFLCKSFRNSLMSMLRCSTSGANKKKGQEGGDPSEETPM
Sequence of P2Y purinoceptor 1 (P49651 whole entry): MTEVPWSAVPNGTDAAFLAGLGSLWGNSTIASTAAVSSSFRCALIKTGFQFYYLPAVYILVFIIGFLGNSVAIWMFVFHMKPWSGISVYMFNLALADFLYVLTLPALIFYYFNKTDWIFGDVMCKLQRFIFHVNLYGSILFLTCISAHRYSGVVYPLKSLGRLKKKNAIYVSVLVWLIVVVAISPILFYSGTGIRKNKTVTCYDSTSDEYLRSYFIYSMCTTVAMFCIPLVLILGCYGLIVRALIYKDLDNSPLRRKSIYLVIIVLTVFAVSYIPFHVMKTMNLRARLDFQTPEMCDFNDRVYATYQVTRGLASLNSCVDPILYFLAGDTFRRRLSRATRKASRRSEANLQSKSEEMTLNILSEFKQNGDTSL
Sequence of P2Y purinoceptor 12 (Q9EPX4 whole entry): as the sequence (Q9EPX4 whole entry) above

| Compound | viability at 10 µM (HT-22) | inhibition in vivo at 10 mg/kg (Rattus norvegicus [1]) | inhibition in vivo at 10 mg/kg (Rattus norvegicus [2]) | inhibition in vivo at 10 mg/kg (Rattus norvegicus [3]) | IC50 (Plasma [5]) | IC50 (Plasma [6]) | IC50 (Plasma [7]) | IC50 (P2Y purinoceptor 1) | inhibition (Oryctolagus cuniculus) | Activity (Rattus norvegicus [16]) | Activity (Rattus norvegicus [18]) | Activity (Rattus norvegicus [19]) | IC50 [20] | other results |
| --- | --- | --- | --- | --- | --- | --- | --- | --- | --- | --- | --- | --- | --- | --- |
| CCCSc1nc(N[C@@H]2C[C@H]2c2ccc(F)c(F)c2)c2nnn([C@@H]3C[C@H](OCCO)[C@@H](O)[C@H]3O)c2n1 [TICAGRELOR] | 76% | 77.7% | 73.7% | 71.8% | 0.5 µM | 0.56 µM | 0.69 µM | – | – | – | – | – | – | IC50 (P2Y purinoceptor 12): 2.11 µM; IC50 [4]: 2.89 µM |
| CC1=NN(c2ccccc2)C(=O)C1 [EDARAVONE] | – | – | – | – | – | – | – | – | – | – | – | – | – | inhibition in vivo at 6 mg/kg (Rattus norvegicus [8]): 48.5%; Activity (Rattus norvegicus [9]): 31%; Activity (Rattus norvegicus [10]): 579.3 U/ml; Activity (Rattus norvegicus [11]): Active; Water Content Did Not Return To Blank Level; IC50 [12]: 23.6 µM; inhibition in vivo at 6 mg/kg (Rattus norvegicus [13]): 55.4%; inhibition in vivo at 6 mg/kg (Rattus norvegicus [14]): 29.4%; Activity (Rattus norvegicus [15]): 35.7% |
| CC(C)(C)c1ccccc1Oc1ncccc1NC(=O)Nc1ccc(OC(F)(F)F)cc1 | 82.6% | 34.4% | 64.6% | 65.9% | 4.42 µM | 3.31 µM | 3.4 µM | 2.66 µM | 30.3% | 44.1% | Active; Water Content Did Not Return To Blank Level | 489.1 U/ml | 2.5 µM | inhibition [17]: 37.6% |
| Cc1nc(-c2cccc(C#N)c2)n(OCc2ccc(C#N)cc2)c1C(=O)O | 81.3% | 19.1% | 35.1% | 34.9% | 3.5 µM | 3.84 µM | 4.24 µM | 2.95 µM | 27.9% | 48.8% | Active; Water Content Did Not Return To Blank Level | 677.6 U/ml | 4.07 µM | Activity (Rattus norvegicus [21]): 33.6%; inhibition ([17]; filed as antagonist): 40.8% |
